Data as given in ChEMBL document CHEMBL5233249, “Recent advancements in the development of heterocyclic anti-inflammatory agents” (Eur J Med Chem, 2020).

Assays:
Rattus norvegicus [1] = experiment: Anti-inflammatory activity in Carrageenan-induced paw edema in Wistar albino rat assessed as inhibition of edema measured after 3 hr relative to control; format: functional; set-up: scale not given: the % may be the effect or the level left
Rattus norvegicus [2] = experiment: Anti-inflammatory activity in Carrageenan-induced paw edema in Wistar albino rat assessed as inhibition of edema measured after 1 hr relative to control; format: functional; set-up: scale not given: the % may be the effect or the level left
Rattus norvegicus [3] = experiment: Anti-inflammatory activity in Carrageenan-induced paw edema in Wistar albino rat assessed as inhibition of edema measured after 5 hr relative to control; format: functional; set-up: scale not given: the % may be the effect or the level left
[4] = biological target: T1, Prostaglandin G/H synthase 2 (Homo sapiens, UniProt P35354); experiment: Inhibition of human COX-2 assessed as by fluorescence based microplate reader assay
T1 sequence (P35354 whole entry): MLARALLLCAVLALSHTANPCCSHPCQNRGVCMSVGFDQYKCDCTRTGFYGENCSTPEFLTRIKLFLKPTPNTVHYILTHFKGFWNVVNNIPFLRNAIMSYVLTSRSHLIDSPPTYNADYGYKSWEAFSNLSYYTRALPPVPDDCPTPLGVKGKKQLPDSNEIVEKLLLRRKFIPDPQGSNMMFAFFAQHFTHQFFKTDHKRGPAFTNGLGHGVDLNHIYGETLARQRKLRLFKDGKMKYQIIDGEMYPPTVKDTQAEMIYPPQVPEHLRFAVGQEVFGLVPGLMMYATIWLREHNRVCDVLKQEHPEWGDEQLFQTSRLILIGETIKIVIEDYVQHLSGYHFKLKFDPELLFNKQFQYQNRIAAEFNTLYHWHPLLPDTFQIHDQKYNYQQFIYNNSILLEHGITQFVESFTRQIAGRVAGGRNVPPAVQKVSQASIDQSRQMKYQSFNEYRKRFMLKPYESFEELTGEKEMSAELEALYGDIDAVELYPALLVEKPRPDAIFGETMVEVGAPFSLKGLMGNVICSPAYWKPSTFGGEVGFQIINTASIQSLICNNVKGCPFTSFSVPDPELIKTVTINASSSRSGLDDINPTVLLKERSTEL

Rattus norvegicus [5] = experiment: Ulcerogenic activity in Swiss albino Wistar rat assessed as ulcer lesion score at 100 mg/kg, po; format: functional
Mus musculus = experiment: Anti-inflammatory activity against Carrageenan-induced paw edema in mouse model assessed as inhibition of edema at 100 mg/kg measured after 4 hrs relative to control; format: functional; set-up: scale not given: the % may be the effect or the level left
Rattus norvegicus [6] = experiment: Anti-inflammatory activity in Carageenan-induced foot paw edema in Sprague-Dawley rat at 50 mg/kg assessed as reduction in paw edema volume relative to control; format: functional; set-up: scale not given: the % may be the effect or the level left
[7] = biological target: T2, Prostaglandin G/H synthase 1 (Ovis aries, UniProt P05979); experiment: Inhibition of ovine COX-1 by EIA method
T2 sequence (P05979 whole entry): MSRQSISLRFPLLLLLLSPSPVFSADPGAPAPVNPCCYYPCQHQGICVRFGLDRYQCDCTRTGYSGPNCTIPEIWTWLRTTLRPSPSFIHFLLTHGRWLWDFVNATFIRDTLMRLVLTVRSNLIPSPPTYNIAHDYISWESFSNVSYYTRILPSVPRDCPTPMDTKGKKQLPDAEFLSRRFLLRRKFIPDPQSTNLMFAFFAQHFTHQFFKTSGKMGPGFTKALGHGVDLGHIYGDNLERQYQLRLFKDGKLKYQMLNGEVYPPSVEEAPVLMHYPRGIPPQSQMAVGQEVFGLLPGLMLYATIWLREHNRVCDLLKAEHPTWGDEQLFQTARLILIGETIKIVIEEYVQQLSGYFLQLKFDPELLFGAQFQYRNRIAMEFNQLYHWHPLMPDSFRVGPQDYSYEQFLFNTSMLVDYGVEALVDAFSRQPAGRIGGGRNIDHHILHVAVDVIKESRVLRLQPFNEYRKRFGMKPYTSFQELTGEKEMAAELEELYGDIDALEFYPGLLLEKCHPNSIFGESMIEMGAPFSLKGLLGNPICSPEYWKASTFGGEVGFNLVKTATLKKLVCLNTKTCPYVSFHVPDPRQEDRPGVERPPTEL

Rattus norvegicus [8] = experiment: Anti-inflammatory activity in Carrageenan-induced paw edema in PO dosed rat model at 20 mg/kg assessed as inhibition of paw edema measured after 4 hrs relative to control; format: functional
Rattus norvegicus [9] = experiment: Anti-inflammatory activity in Carrageenan-induced paw edema in PO dosed rat model at 10 mg/kg assessed as inhibition of paw edema measured after 4 hrs relative to control; format: functional
Rattus norvegicus [10] = experiment: Anti-inflammatory activity in Carrageenan-induced paw edema in PO dosed Swiss albino rat model at 10 mg/kg assessed as inhibition in volume of edema measured after 1 hrs relative to control; format: functional
RAW264.7 [11] = experiment: Anti-inflammatory activity in mouse RAW264.7 cells assessed as LPS-induced reduction in NO production measured after 24 hrs; format: functional, cell-based; conditions: RAW264.7, 24 h
RAW264.7 [12] = experiment: Anti-inflammatory activity in mouse RAW264.7 cells assessed as inhibition of LPS-induced NO production measured after 24 hrs; format: functional, cell-based; conditions: RAW264.7, 24 h
Rattus norvegicus [13] = experiment: Anti-inflammatory activity in Carrageenan-induced paw edema in Wistar albino rat assessed as reduction in paw edema measured after 3 hr relative to control; format: functional; set-up: scale not given: the % may be the effect or the level left
Rattus norvegicus [14] = experiment: Anti-inflammatory activity against Carrageenan-induced paw edema in Wistar albino rat ulcerogenic activity assessed as reduction in severity index; format: functional
Rattus norvegicus [15] = experiment: Anti-inflammatory activity in Carrageenan-induced paw edema in Wistar albino rat assessed as reduction in paw edema measured after 2 hr relative to control; format: functional; set-up: scale not given: the % may be the effect or the level left
Rattus norvegicus [16] = experiment: Anti-inflammatory activity in Carrageenan-induced paw edema in Wistar albino rat assessed as reduction in paw edema measured after 1 hr relative to control; format: functional; set-up: scale not given: the % may be the effect or the level left

Structure (SMILES): CCOc1cc(C)nn1C(=O)CNc1ncnc2c1c(C)nn2-c1ccccc1
- Activity (Rattus norvegicus [1]): 94%
- Activity (Rattus norvegicus [2]): 82%
- Activity (Rattus norvegicus [3]): 90%
- IC50 [4]: 0.16 µM

Structure (SMILES): O=C(NCn1c(CCl)nc2ccccc21)c1ccc(Cl)cc1
- Activity (Rattus norvegicus [5]): 12.25 mm
- Activity (Mus musculus): 66.66%

Structure (SMILES): O=C(NNC(=S)NCc1ccccc1)c1ccc(C2=CN3c4ccccc4NC3S2)nc1 (stereo not given)
- Activity (Rattus norvegicus [6]): 75.9%
- IC50 [7]: 0.075 µM

Structure (SMILES): Cc1nn(-c2ccccc2)c2c1C(c1ccc([N+](=O)[O-])cc1)N1C=CC=NC1=N2 (stereo not given)
- inhibition in vivo at 20 mg/kg (Rattus norvegicus [8]): 80%
- inhibition in vivo at 10 mg/kg (Rattus norvegicus [9]): 73%

Structure (SMILES): Cc1nn(-c2ccccc2)c2c1C(c1ccccc1Cl)N1C=CC=NC1=N2 (stereo not given)
- inhibition in vivo at 20 mg/kg (Rattus norvegicus [8]): 86%
- inhibition in vivo at 10 mg/kg (Rattus norvegicus [9]): 73%

Structure (SMILES): Cc1c(-c2ccccc2)n(C(=O)c2ccccc2)c2ccc(S(C)(=O)=O)cc12
- inhibition in vivo at 10 mg/kg (Rattus norvegicus [10]): 73.1%

Structure (SMILES): COc1ccc(C(=O)c2nc3ccccc3cc2-c2cc(OC)c(OC)c(OC)c2)cc1
- IC50 (RAW264.7 [11]): 6.7 µM

Structure (SMILES): CSc1nn(-c2ccc(S(C)(=O)=O)cc2)c2ncnc(NCC(=O)/N=C/c3ccco3)c12
- Activity (Rattus norvegicus [1]): 79%
- Activity (Rattus norvegicus [2]): 2%
- Activity (Rattus norvegicus [3]): 88%
- IC50 [7]: 123 µM
- IC50 [4]: 0.1 µM

Structure (SMILES): COc1cc(-c2cc3ccccc3nc2C(=O)c2ccc(F)cc2)cc(OC)c1OC
- IC50 (RAW264.7 [11]): 7.41 µM
- IC50 (RAW264.7 [12]): 15.4 µM

Structure (SMILES): Clc1ccccc1-c1nnc(Cn2c(CN3CCOCC3)nc3ccccc32)o1
- Activity (Rattus norvegicus [13]): 74.17%
- Activity (Rattus norvegicus [14]): 0.28 mm
- Activity (Rattus norvegicus [15]): 67.12%
- Activity (Rattus norvegicus [16]): 38.54%
